Source: patent publication US9115340B2, “Microfluidic continuous flow device” (AGENCY FOR SCIENCE TECHNOLOGY & RESEARCH, priority 2008, dated 2015)

Experiments:
[1] = test system: primary rat hepatocytes; assay: Albumin secretion of primary rat hepatocytes cultured in the microfluidic channel (rat albumin ELISA); type: cell-based
Source text: 200 pg/ml of TGF-β1 was supplemented into cultivation medium (▪). In another set of experiment, TGF-β1 was pre-loaded into gelatin microspheres and was then controlled released to the hepatocytes at a concentration of 217.5 pg/ml ( ?; control release). In the control experiment, there is no TGF-β1 supplemented in cultivation medium (□).
Albumin production was quantified with a rat albumin ELISA quantification kit (Bethyl Laboratories Inc, USA) in the collected cultivation medium everyday. In the presence of TGF-β1, the level of albumin secretion is enhanced. From day 5 onwards, when TGF-β1 is controlled released to the hepatocytes, the level of albumin secretion can be well-sustained.

[2] = test system: primary rat hepatocytes; assay: UGT activity: 4-MUG production of primary rat hepatocytes in the microfluidic channel (CE-LIF); type: cell-based; details: from day 3 onwards; TGF-β1 controlled released from gelatin microspheres at 217.5 pg/ml; compared to medium-supplemented and control groups
Protocol: The enzyme has the ability to metabolize the substrate 4-methylumbelliferone (MU) into 4-methylumbelliferone-glucuronide (MUG). Thus, the enzyme activity is indicated by the amount of 4-MUG produced by the cells.
Capillary electrophoresis (CE) with fluorimetric detection was used for the simultaneous detection of 4-MU and 4-MUG. Separation is carried out on an untreated fused silica capillary with fluorimetric detection using an excitation wavelength of 320 nm with a 375 nm cut off emission filter. […]
Similar to the UDP-glucuronosyltransferase (UGT) assay described above, UDP-glucuronosyltransferase (UGT) activity of hepatocytes cultured in the compartment of a channel of a microfluidic continuous flow device was determined by infusing 100 μM of 4-methylumbelliferone (4-MU) (Sigma, Singapore) for 4 h at 200 μl/h into the channel. The perfusate (800 μl) was collected and the metabolic product, 4-methylumbelliferone-glucuronide (4-MUG), was analyzed using capillary electrophoresis with laser induced fluorescence (CE-LIF) (Toh, Y. C. et al., 2008, Analyst, vol. 132, no. 3, p. 326) detection (Prince Technologies B.V., Netherlands) at an excitation wavelength of 325 nm.

In the case of “TGF-β1: growth factor supplemented into cultivation medium or pre-loaded into gelatin microspheres and controlled released to hepatocytes”, the albumin secretion ([1]; from day 5 onwards, 200 pg/ml TGF-β1 supplemented into cultivation medium) is reported as “decreases”, the “level of albumin secretion” value ([1]; from day 5 onwards, TGF-β1 controlled released from gelatin microspheres at 217.5 pg/ml) is reported as “well-sustained” and the “level of albumin secretion” value ([1]; in the presence of TGF-β1 (200 pg/ml in medium or 217.5 pg/ml controlled release) versus no TGF-β1) is reported as “enhanced”. The “level of 4-MUG production” value [2] was “greatly enhanced”.
